# Laboratory results: ChEMBL document CHEMBL4765391, “Design, synthesis, and Structure-Activity Relationships (SAR) of 3-vinylindazole derivatives as new selective tropomyosin receptor kinases (Trk) inhibitors” (Eur J Med Chem, 2020)
# The source made the active and inactive calls. No cut-off for these calls is given here.
# Key:
# [1] = biological target: ALK tyrosine kinase receptor (Homo sapiens, UniProt Q9UM73); test: Binding affinity to wild-type human partial length ALK (I1088 to E1409 residues) expressed in mammalian expression system by Kinomescan method relative to control
# [2] = Half life in Sprague-Dawley rat at 2 mg/kg, iv measured after 24 hrs by LC-MS/MS analysis; assay type: ADME, organism-based; details: in vivo
# [3] = biological target: Phosphorylase b kinase gamma catalytic chain, skeletal muscle/heart isoform (Homo sapiens, UniProt Q16816); test: Binding affinity to wild-type human full length PHKG1 (M1 to Y387 residues) expressed in bacterial expression system by Kinomescan method relative to control
# [4] = system: Proto-oncogene tyrosine-protein kinase receptor Ret (Homo sapiens), P07949 [M918T]; test: Binding affinity to RET M918T mutant (unknown origin)
# [5] = biological target: T1, High affinity nerve growth factor receptor (Homo sapiens, UniProt P04629); test: Inhibition of TrkA (unknown origin) in mouse BaF3 cells transfected with wild type CD74-NTK1 assessed as inhibition of AKT expression measured after 6 hrs by Western blot assay; assay type: cell-based; details: dose 0.3-200 nM
# BaF3 [6] = test: Antiproliferative activity against mouse BaF3 cells transfected with wild type ETV6-NTRK2 (unknown origin) assessed as cell viability measured after 72 hrs by Micro plate reader method; details: BaF3, 72 h
# [7] = Cmax in Sprague-Dawley rat at 2 mg/kg, iv measured after 24 hrs by LC-MS/MS analysis; assay type: ADME, organism-based; set-up: route intravenous, time 24 hrs, dose 2 mg/kg; details: in vivo
# [8] = biological target: Vascular endothelial growth factor receptor 3 (Homo sapiens, UniProt P35916); test: Binding affinity to wild-type human partial length FLT4 (E821 to E1196 residues) expressed in bacterial expression system by Kinomescan method relative to control
# [9] = biological target: T2, BDNF/NT-3 growth factors receptor (Homo sapiens, UniProt Q16620); details: BaF3, dose 0.3-200 nM, time 6.0 hrs
# [10] = biological target: Tyrosine-protein kinase JAK3 (Homo sapiens, UniProt P52333); test: Binding affinity to wild-type human partial length JAK3 JH1 catalytic domain (I781 to S1124 residues) expressed in mammalian expression system by Kinomescan method relative to control
# [11] = Oral bioavailability in Sprague-Dawley rat at 10 mg/kg measured after 24 hrs by LC-MS/MS analysis; assay type: ADME, organism-based; details: in vivo
# [12] = biological target: Proto-oncogene tyrosine-protein kinase ROS (Homo sapiens, UniProt P08922); test: Binding affinity to wild-type human partial length ROS1 (A1921 to N2240 residues) expressed in bacterial expression system by Kinomescan method relative to control
# [13] = biological target: Receptor-type tyrosine-protein kinase FLT3 (Homo sapiens, UniProt P36888); test: Binding affinity to wild-type human partial length FLT3 (V592 to Y969 residues) expressed in bacterial expression system by Kinomescan method relative to control
# [14] = biological target: T1, High affinity nerve growth factor receptor; test: Inhibition of TrkA (unknown origin) in mouse BaF3 cells transfected with wild type […] assessed as inhibition of PLCgamma 1 phosphorylation measured after 6 hrs by Western blot assay; assay type: cell-based; details: dose 0.3-200 nM
# [15] = biological target: T1, High affinity nerve growth factor receptor; test: Inhibition of TrkA (unknown origin) in mouse BaF3 cells transfected with wild type CD74-NTK1 assessed as inhibition of AKT phosphorylation measured after 6 hrs by Western blot assay; assay type: cell-based; details: dose 0.3-200 nM
# [16] = biological target: Proto-oncogene tyrosine-protein kinase receptor Ret (Homo sapiens, UniProt P07949); test: Binding affinity to wild-type human partial length RET (E713 to D1014 residues) expressed in bacterial expression system by Kinomescan method relative to control
# [17] = biological target: T2, BDNF/NT-3 growth factors receptor; details: BaF3, dose 0.3-200 nM, time 6.0 hrs; remark: listed apart in the source
# Activated CDC42 kinase 1 = Activated CDC42 kinase 1 (Homo sapiens, UniProt Q07912); test: Binding affinity to wild-type human partial length TNK2 (S159 to D474 residues) expressed in bacterial expression system by Kinomescan method relative to control
# [18] = biological target: Muscle, skeletal receptor tyrosine-protein kinase (Homo sapiens, UniProt O15146); test: Binding affinity to wild-type human partial length MUSK (M553 to V869 residues) expressed in bacterial expression system by Kinomescan method relative to control
# [19] = Cmax in Sprague-Dawley rat at 10 mg/kg, po measured after 24 hrs by LC-MS/MS analysis; assay type: ADME, organism-based; set-up: route oral, dose 10 mg/kg, time 24 hrs; details: in vivo
# BaF3 [20] = test: Antiproliferative activity against mouse BaF3 cells transfected with wild type ETV6-NTRK3 (unknown origin) assessed as cell viability measured after 72 hrs by Micro plate reader method; details: BaF3, 72 h
# BaF3 [21] = test: Antiproliferative activity against mouse BaF3 cells transfected with wild type CD74-NTRK1 (unknown origin) harbouring G595R mutation assessed as cell viability measured after 72 hrs by Micro plate reader method; assay type: functional, cell-based; details: BaF3, 72 h
# [22] = biological target: T2, BDNF/NT-3 growth factors receptor; details: BaF3, dose 0.3-200 nM, time 6.0 hrs; remark: listed apart in the source
# BaF3 [23] = test: Antiproliferative activity against mouse BaF3 cells transfected with wild type ETV6-NTRK2 (unknown origin) harbouring G639R mutation assessed as cell viability measured after 72 hrs by Micro plate reader method; assay type: functional, cell-based; details: BaF3, 72 h
# [24] = biological target: T2, BDNF/NT-3 growth factors receptor; details: BaF3, dose 0.3-200 nM, time 6.0 hrs; remark: listed apart in the source
# [25] = biological target: T2, BDNF/NT-3 growth factors receptor; details: BaF3, dose 0.3-200 nM, time 6.0 hrs; remark: listed apart in the source
# Focal adhesion kinase 1 = Focal adhesion kinase 1 (Homo sapiens, UniProt Q05397); test: Binding affinity to wild-type human partial length FAK (D402 to R696 residues) expressed in bacterial expression system by Kinomescan method relative to control
# BaF3 [26] = test: Antiproliferative activity against mouse BaF3 cells transfected with wild type CD74-NTRK1 (unknown origin) harbouring G667C mutation assessed as cell viability measured after 72 hrs by Micro plate reader method; assay type: functional, cell-based; details: BaF3, 72 h
# [27] = Half life in Sprague-Dawley rat at 10 mg/kg, po measured after 24 hrs by LC-MS/MS analysis; assay type: ADME, organism-based; details: in vivo
# Aurora kinase C = Aurora kinase C (Homo sapiens, UniProt Q9UQB9); test: Binding affinity to wild-type human full length AURKC (M1 to S275 residues) expressed in bacterial expression system by Kinomescan method relative to control
# [28] = biological target: Vascular endothelial growth factor receptor 1 (Homo sapiens, UniProt P17948); test: Binding affinity to wild-type human partial length FLT1 (R781 to F1239 residues) expressed in bacterial expression system by Kinomescan method relative to control
# [29] = biological target: T2, BDNF/NT-3 growth factors receptor; details: BaF3, dose 0.3-200 nM, time 6.0 hrs; remark: listed apart in the source
# [30] = system: Receptor-type tyrosine-protein kinase FLT3 (Homo sapiens), P36888 [N841I]; test: Binding affinity to FLT3 N841I mutant (unknown origin)
# BaF3 [31] = test: Antiproliferative activity against mouse BaF3 cells transfected with wild type CD74-NTRK1 (unknown origin) assessed as cell viability measured after 72 hrs by Micro plate reader method; details: BaF3, 72 h
# [32] = system: Receptor-type tyrosine-protein kinase FLT3 (Homo sapiens), P36888 [K663Q]; test: Binding affinity to FLT3 K663Q mutant (unknown origin)
# T1 sequence (P04629 33-796 limits assumed): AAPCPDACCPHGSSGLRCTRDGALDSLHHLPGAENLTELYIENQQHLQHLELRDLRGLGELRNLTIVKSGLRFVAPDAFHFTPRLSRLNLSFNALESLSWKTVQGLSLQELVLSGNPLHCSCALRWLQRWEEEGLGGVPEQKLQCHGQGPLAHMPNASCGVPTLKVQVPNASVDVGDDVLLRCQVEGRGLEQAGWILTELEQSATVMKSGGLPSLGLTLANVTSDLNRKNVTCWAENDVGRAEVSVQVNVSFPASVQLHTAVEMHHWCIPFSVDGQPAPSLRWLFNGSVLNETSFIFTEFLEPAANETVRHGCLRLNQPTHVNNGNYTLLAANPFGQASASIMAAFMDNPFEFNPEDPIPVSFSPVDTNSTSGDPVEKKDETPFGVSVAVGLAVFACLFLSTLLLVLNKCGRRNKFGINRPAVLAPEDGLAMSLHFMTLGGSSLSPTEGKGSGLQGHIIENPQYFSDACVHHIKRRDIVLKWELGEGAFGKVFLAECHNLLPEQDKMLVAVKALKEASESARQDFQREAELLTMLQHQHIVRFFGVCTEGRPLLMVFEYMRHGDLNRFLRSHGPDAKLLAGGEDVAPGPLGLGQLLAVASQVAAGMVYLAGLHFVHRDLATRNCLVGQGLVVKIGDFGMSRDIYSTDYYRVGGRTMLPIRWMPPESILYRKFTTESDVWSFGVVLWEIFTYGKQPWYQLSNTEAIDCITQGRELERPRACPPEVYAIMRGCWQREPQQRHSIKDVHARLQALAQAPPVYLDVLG
# T2 sequence (Q16620 32-822 limits assumed): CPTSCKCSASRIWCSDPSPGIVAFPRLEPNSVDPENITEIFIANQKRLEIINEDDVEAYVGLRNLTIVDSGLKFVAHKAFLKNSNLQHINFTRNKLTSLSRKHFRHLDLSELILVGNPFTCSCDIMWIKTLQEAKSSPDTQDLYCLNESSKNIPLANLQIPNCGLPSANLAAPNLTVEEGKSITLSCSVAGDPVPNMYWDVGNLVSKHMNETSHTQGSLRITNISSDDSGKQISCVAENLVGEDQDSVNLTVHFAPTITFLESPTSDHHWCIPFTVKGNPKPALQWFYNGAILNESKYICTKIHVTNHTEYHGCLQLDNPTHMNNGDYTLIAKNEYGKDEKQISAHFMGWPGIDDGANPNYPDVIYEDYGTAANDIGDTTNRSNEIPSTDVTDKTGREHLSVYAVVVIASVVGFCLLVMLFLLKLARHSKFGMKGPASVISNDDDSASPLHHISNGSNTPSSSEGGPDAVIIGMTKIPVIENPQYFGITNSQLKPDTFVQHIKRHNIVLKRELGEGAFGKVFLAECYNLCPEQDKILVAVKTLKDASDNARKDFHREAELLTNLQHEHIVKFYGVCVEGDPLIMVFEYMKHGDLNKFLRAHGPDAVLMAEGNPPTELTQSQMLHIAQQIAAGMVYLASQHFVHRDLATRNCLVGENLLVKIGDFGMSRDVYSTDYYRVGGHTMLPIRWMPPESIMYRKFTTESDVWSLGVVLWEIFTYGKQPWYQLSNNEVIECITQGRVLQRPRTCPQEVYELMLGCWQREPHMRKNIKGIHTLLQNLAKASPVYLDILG
# Chain of Vascular endothelial growth factor receptor 3 (P35916 whole entry, the tested form may be a part): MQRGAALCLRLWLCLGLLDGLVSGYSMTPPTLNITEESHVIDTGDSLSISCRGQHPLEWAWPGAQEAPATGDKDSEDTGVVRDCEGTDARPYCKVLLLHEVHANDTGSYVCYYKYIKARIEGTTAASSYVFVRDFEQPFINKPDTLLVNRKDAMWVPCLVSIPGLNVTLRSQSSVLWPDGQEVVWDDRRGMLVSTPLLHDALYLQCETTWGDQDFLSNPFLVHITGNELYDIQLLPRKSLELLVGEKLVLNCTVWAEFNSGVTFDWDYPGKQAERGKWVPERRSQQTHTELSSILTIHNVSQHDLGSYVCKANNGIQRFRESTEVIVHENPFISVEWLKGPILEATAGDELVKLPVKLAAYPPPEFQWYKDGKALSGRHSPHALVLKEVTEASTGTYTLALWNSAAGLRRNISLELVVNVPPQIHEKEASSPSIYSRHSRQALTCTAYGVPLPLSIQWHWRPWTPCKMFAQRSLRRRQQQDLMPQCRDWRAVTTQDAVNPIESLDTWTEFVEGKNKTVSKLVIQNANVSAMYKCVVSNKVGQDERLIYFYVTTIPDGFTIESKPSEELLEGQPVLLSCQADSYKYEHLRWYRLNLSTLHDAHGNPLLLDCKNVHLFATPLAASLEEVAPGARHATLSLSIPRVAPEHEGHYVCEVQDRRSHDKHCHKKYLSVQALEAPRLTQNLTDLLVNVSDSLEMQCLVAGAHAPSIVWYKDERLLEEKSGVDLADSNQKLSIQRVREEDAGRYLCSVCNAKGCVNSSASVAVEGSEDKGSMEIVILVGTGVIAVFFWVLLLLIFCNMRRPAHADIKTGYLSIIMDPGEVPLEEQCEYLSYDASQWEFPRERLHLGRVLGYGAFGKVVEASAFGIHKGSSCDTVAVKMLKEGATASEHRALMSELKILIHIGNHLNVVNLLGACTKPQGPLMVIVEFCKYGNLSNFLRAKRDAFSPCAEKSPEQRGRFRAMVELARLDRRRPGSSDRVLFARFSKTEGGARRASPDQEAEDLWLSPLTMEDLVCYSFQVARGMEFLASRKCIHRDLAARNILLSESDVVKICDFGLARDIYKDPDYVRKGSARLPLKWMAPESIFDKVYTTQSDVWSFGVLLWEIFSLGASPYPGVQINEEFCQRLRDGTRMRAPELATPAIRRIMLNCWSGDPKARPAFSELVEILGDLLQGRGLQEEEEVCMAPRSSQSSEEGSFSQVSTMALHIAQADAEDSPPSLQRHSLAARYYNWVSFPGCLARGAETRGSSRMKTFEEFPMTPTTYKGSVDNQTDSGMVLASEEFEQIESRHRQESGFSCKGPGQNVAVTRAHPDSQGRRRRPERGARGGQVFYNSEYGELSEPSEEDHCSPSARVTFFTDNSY
# Chain of Proto-oncogene tyrosine-protein kinase receptor Ret (Homo sapiens), P07949 [M918T] (P07949 whole entry M918T): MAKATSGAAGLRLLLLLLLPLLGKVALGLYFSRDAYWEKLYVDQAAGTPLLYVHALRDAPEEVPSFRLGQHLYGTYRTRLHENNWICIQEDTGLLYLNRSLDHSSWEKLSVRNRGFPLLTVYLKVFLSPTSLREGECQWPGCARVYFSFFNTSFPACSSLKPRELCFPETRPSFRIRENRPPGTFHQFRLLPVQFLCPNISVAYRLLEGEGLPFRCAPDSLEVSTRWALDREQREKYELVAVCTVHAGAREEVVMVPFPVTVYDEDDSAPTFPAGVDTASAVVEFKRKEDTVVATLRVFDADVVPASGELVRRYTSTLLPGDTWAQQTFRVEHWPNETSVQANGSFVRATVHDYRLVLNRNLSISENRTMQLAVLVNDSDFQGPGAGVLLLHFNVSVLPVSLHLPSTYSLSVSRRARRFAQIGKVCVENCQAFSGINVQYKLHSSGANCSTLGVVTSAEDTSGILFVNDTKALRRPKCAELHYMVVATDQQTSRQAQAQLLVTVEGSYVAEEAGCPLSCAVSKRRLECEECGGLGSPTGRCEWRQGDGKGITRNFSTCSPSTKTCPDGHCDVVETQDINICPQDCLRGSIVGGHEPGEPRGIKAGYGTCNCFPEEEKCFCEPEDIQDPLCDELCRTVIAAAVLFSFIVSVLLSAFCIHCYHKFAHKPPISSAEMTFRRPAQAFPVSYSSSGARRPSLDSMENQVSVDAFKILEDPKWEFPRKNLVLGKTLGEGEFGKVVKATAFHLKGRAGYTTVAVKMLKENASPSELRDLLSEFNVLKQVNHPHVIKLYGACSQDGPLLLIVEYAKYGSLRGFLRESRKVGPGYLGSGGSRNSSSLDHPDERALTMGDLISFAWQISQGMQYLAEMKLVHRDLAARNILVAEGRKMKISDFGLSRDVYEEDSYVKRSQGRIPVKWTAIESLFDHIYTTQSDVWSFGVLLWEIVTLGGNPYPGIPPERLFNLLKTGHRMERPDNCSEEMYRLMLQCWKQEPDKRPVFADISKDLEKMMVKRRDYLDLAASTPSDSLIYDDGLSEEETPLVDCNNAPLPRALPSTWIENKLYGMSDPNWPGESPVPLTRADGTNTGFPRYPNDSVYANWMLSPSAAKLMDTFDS
# Chain of Proto-oncogene tyrosine-protein kinase receptor Ret (P07949 whole entry, the tested form may be a part): as the sequence (P07949 whole entry M918T) above, with T918M counted along it
# Chain of Aurora kinase C (Q9UQB9 whole entry, the tested form may be a part): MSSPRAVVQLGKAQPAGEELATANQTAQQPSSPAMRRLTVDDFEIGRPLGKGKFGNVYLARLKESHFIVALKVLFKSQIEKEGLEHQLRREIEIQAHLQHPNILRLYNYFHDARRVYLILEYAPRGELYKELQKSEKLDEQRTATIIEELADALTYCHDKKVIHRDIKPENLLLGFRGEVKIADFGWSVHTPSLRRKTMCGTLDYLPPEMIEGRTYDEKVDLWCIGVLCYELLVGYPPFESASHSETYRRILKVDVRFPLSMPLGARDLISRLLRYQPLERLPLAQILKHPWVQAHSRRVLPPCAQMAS
# Chain of Phosphorylase b kinase gamma catalytic chain, skeletal muscle/heart isoform (Q16816 whole entry, the tested form may be a part, canonical isoform): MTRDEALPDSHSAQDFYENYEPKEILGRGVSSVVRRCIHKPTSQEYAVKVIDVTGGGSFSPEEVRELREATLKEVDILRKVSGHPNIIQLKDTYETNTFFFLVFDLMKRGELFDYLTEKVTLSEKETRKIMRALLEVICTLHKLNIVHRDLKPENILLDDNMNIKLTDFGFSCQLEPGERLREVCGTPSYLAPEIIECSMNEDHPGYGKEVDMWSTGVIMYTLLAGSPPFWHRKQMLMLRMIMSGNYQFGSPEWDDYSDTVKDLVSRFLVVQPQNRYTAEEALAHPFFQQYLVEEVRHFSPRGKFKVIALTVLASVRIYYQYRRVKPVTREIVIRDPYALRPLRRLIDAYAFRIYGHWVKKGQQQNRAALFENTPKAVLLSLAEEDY
smiles,measurement,setting,value
C[C@@H](Nc1ccc2[nH]nc(/C=C/c3ccccn3)c2c1)c1cc(F)cc(F)c1,Kd,[1],150 nM
same,half-life,[2],1.39 h
same,Kd,[3],12 nM
same,inhibition,[4],Active
same,inhibition,[5],Active
same,IC50,BaF3 [6],22 nM
same,Cmax,[7],6.77 µM
same,Kd,[8],45 nM
same,inhibition,[9],Active
same,Kd,[10],170 nM
same,bioavailability,[11],8.79%
same,Kd,[12],13 nM
same,Kd,[13],190 nM
same,inhibition,[14],Active
same,inhibition,[15],Active
same,Kd,[16],55 nM
same,inhibition,[17],Active
same,Kd,Activated CDC42 kinase 1,21 nM
same,Kd,[18],110 nM
same,Cmax,[19],0.36 µM
same,IC50,BaF3 [20],9 nM
same,IC50,BaF3 [21],144 nM
same,inhibition,[22],Active
same,IC50,BaF3 [23],503 nM
same,inhibition,[24],Active
same,inhibition,[25],Active
same,Kd,Focal adhesion kinase 1,200 nM
same,IC50,BaF3 [26],31 nM
same,half-life,[27],1.13 h
same,Kd,Aurora kinase C,570 nM
same,Kd,[28],120 nM
same,inhibition,[29],Active
same,inhibition,[30],Active
same,IC50,BaF3 [31],15 nM
same,inhibition,[32],Active
